Reference: US12398120B2, “Substituted hydantoinamides as ADAMTS7 antagonists” (BAYER AKTIENGESELLSCHAFT, priority 2019, dated 2025)

Target: ADAMTS4 (Homo sapiens (Human), UniProt O75173)
Assay: Selectivity assay for ADAMTS-7 modulators: ADAMTS4 (FRET substrate)
Assay type: biochemical
Conditions: ADAMTS4 (R&D 4307-AD) 50 nM, substrate Dabcyl-EEVKAKVQPY-Glu(Edans)-NH2 1 μM, 120 min, 32° C.
Summary of the method: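 Human ADAMTS4 with compound in DMSO, or DMSO control; reaction started by adding FRET substrate in reaction buffer. Fluorescence increase measured at substrate-specific wavelengths. IC50 derived from % inhibition of enzyme activity versus compound concentration.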

Chain of ADAMTS4 (O75173 213-685): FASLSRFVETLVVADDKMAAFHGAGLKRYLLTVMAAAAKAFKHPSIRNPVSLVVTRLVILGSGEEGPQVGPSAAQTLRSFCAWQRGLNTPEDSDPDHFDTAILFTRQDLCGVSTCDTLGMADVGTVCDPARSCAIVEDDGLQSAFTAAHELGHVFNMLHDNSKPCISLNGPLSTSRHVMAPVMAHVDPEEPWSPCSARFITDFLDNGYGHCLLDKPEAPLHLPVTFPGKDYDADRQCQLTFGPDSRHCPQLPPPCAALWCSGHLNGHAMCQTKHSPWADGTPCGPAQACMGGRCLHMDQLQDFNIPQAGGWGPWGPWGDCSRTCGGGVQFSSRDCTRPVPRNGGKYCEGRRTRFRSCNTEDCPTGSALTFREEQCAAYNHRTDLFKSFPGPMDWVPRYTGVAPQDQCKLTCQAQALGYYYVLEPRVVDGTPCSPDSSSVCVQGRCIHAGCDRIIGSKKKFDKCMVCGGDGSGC

IC50 [µM]	Structure (SMILES)
6.3	Cn1nccc1C1(CNC(=O)c2ccc(Cl)cc2-c2ccc(C(F)(F)F)nc2)NC(=O)NC1=O (single isomer, unassigned; ent-4) [Example 289, Ent-4-Chloro-N-{[4-(1-Methyl-1H-Pyrazol-5-Yl)-2,5-Dioxoimidazolidin-4-Yl]Methyl}-2-[6-(Trifluoromethyl)Pyridin-3-Yl]Benzamide]
14	Cn1nccc1C1(CNC(=O)c2ccc(F)cc2-c2ccc(C(F)(F)F)nc2)NC(=O)NC1=O (single isomer, unassigned; ent-4) [Example 291, Ent-4-Fluoro-N-{[4-(1-Methyl-1H-Pyrazol-5-Yl)-2,5-Dioxoimidazolidin-4-Yl]Methyl}-2-[6-(Trifluoromethyl)Pyridin-3-Yl]Benzamide]
20	Cn1nccc1C1(CNC(=O)c2c(F)cccc2-c2ccc(Cl)cc2)NC(=O)NC1=O (single isomer, unassigned; ent-4) [Example 312, Ent-4′-Chloro-3-Fluoro-N-{[4-(1-Methyl-1H-Pyrazol-5-Yl)-2,5-Dioxoimidazolidin-4-Yl]Methyl}[Biphenyl]-2-Carboxamide]
23	Cn1nccc1C1(CNC(=O)c2ccccc2-c2ccc(Cl)cc2F)NC(=O)NC1=O (single isomer, unassigned; ent-4) [Example 313, Ent-4′-Chloro-2′-Fluoro-N-{[4-(1-Methyl-1H-Pyrazol-5-Yl)-2,5-Dioxoimidazolidin-4-Yl]Methyl}[Biphenyl]-2-Carboxamide]
> 50	COc1cc(Cl)ccc1-c1ccccc1C(=O)NCC1(c2ccnn2C)NC(=O)NC1=O (single isomer, unassigned; ent-4) [Example 314, Ent-4′-Chloro-2′-Methoxy-N-{[4-(1-Methyl-1H-Pyrazol-5-Yl)-2,5-Dioxoimidazolidin-4-Yl]Methyl}[Biphenyl]-2-Carboxamide]
3.7	Cc1ncsc1C1(CNC(=O)c2ccc(Cl)cc2-c2ccc(C(F)(F)F)cc2)NC(=O)NC1=O (single isomer, unassigned; ent-5) [Example 7, Ent-5-Chloro-N-{[4-(4-Methyl-1,3-Thiazol-5-Yl)-2,5-Dioxoimidazolidin-4-Yl]Methyl}-4′-(Trifluoromethyl)[Biphenyl]-2-Carboxamide]
3.8	Cc1ccc(C(=O)NCC2(c3scnc3C)NC(=O)NC2=O)c(-c2ccc(C(F)(F)F)cc2)c1 (single isomer, unassigned; ent-5) [Example 8, Ent-5-Methyl-N-{[4-(4-Methyl-1,3-Thiazol-5-Yl)-2,5-Dioxoimidazolidin-4-Yl]Methyl}-4′-(Trifluoromethyl)[Biphenyl]-2-Carboxamide]
8.9	Cc1ncsc1C1(CNC(=O)c2ccc(F)cc2-c2ccc(C(F)(F)F)cc2)NC(=O)NC1=O (single isomer, unassigned; ent-5) [Example 10, Ent-5-Fluoro-N-{[4-(4-Methyl-1,3-Thiazol-5-Yl)-2,5-Dioxoimidazolidin-4-Yl]Methyl}-4′-(Trifluoromethyl)[Biphenyl]-2-Carboxamide]
3.5	Cc1scnc1C1(CNC(=O)c2ccc(Cl)cc2-c2ccc(C(F)(F)F)cc2)NC(=O)NC1=O (single isomer, unassigned; ent-5) [Example 16, Ent-5-Chloro-N-{[4-(5-Methyl-1,3-Thiazol-4-Yl)-2,5-Dioxoimidazolidin-4-Yl]Methyl}-4′-(Trifluoromethyl)[Biphenyl]-2-Carboxamide]
2.1	Cc1c(C2(CNC(=O)c3ccc(Cl)cc3-c3ccc(C(F)(F)F)cc3)NC(=O)NC2=O)cnn1C (single isomer, unassigned; ent-5) [Example 79, Ent-5-Chloro-N-{[4-(1,5-Dimethyl-1H-Pyrazol-4-Yl)-2,5-Dioxoimidazolidin-4-Yl]Methyl}-4′-(Trifluoromethyl)[Biphenyl]-2-Carboxamide]
1.85	Cn1ccnc1C1(CNC(=O)c2ccc(F)cc2-c2ccc(C(F)(F)F)cc2)NC(=O)NC1=O (single isomer, unassigned; ent-5) [Example 150, Ent-5-Fluoro-N-{[4-(1-Methyl-1H-Imidazol-2-Yl)-2,5-Dioxoimidazolidin-4-Yl]Methyl}-4′-(Trifluoromethyl)[Biphenyl]-2-Carboxamide]
1.02	Cc1ccc(C(=O)NCC2(c3nccn3C)NC(=O)NC2=O)c(-c2ccc(C(F)(F)F)cc2)c1 (single isomer, unassigned; ent-5) [Example 151, Ent-5-Methyl-N-{[4-(1-Methyl-1H-Imidazol-2-Yl)-2,5-Dioxoimidazolidin-4-Yl]Methyl}-4′-(Trifluoromethyl)[Biphenyl]-2-Carboxamide]
0.51	Cc1ccc(-c2cc(Cl)ccc2C(=O)NCC2(c3nccn3C)NC(=O)NC2=O)cc1 (single isomer, unassigned; ent-5) [Example 153, Ent-5-Chloro-4′-Methyl-N-{[4-(1-Methyl-1H-Imidazol-2-Yl)-2,5-Dioxoimidazolidin-4-Yl]Methyl}[Biphenyl]-2-Carboxamide]
0.728	Cn1ccnc1C1(CNC(=O)c2ccc(Cl)cc2-c2ccc(C(F)(F)F)cc2)NC(=O)NC1=O (single isomer, unassigned; ent-5) [Example 161, Ent-5-Chloro-N-{[4-(1-Methyl-1H-Imidazol-2-Yl)-2,5-Dioxoimidazolidin-4-Yl]Methyl}-4′-(Trifluoromethyl)[Biphenyl]-2-Carboxamide]
1.9	Cc1ccc(C(=O)NCC2(c3ncsc3C)NC(=O)NC2=O)c(-c2ccc(C(F)(F)F)cc2)c1 (single isomer, unassigned; ent-5) [Example 168, Ent-5-Methyl-N-{[4-(5-Methyl-1,3-Thiazol-4-Yl)-2,5-Dioxoimidazolidin-4-Yl]Methyl}-4′-(Trifluoromethyl)[Biphenyl]-2-Carboxamide]
9.37	Cn1nccc1C1(CNC(=O)c2ccc(F)cc2-c2ccc(C(F)(F)F)cc2)NC(=O)NC1=O (single isomer, unassigned; ent-5) [Example 184, Ent-5-Fluoro-N-{[4-(1-Methyl-1H-Pyrazol-5-Yl)-2,5-Dioxoimidazolidin-4-Yl]Methyl}-4′-(Trifluoromethyl)[Biphenyl]-2-Carboxamide]
2.73	Cn1nccc1C1(CNC(=O)c2ccc(Cl)cc2-c2ccc(C(F)(F)F)cc2)NC(=O)NC1=O (single isomer, unassigned; ent-5) [Example 188, Ent-5-Chloro-N-{[4-(1-Methyl-1H-Pyrazol-5-Yl)-2,5-Dioxoimidazolidin-4-Yl]Methyl}-4′-(Trifluoromethyl)[Biphenyl]-2-Carboxamide]

Same assay, conditions: ADAMTS4 (R&D 4307-AD) 50 nM, substrate Dabcyl-[…]-Glu(Edans)-NH2 1 μM, 120 min, 32° C.

Structure (SMILES)	IC50 [µM]
O=C1NC(=O)C(CNC(=O)c2ccc(F)cc2-c2ccc(Cl)cc2)(C2(F)CC2)N1 (single isomer, unassigned; ent-4) [Example 301, Ent-4′-Chloro-5-Fluoro-N-{[4-(1-Fluorocyclopropyl)-2,5-Dioxoimidazolidin-4-Yl]Methyl}[Biphenyl]-2-Carboxamide]	15
Cc1scnc1C1(CNC(=O)c2ccc(F)cc2-c2ccc(C(F)(F)F)cc2)NC(=O)NC1=O (single isomer, unassigned; ent-5) [Example 176, Ent-5-Fluoro-N-{[4-(5-Methyl-1,3-Thiazol-4-Yl)-2,5-Dioxoimidazolidin-4-Yl]Methyl}-4′-(Trifluoromethyl)[Biphenyl]-2-Carboxamide]	4.13
